Source: paper PMC12436592 (Nature Communications, 2025)
“And” between values parts separate entries of the source, which are not always exact repeats. Equal entries are not always repeated.

T1: hP2X7R (Homo sapiens, UniProt Q99572)
T1 sequence (Q99572 1-595): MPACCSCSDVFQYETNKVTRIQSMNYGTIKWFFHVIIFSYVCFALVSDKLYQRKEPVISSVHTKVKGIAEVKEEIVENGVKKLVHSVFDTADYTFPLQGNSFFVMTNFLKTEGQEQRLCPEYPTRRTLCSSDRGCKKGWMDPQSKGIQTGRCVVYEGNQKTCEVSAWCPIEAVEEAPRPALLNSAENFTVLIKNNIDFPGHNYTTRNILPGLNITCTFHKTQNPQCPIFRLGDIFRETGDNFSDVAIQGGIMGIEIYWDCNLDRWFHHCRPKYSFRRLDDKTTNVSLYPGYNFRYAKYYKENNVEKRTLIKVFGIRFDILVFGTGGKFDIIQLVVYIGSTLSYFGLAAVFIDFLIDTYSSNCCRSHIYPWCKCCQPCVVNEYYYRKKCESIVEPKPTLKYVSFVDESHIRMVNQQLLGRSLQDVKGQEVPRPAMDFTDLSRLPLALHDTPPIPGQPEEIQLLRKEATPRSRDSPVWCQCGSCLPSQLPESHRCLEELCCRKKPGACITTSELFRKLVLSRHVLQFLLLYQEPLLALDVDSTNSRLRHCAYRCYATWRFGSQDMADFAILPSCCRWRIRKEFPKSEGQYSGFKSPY

B1: full-length wild-type human P2X7 receptor (receptor, UniProt Q99572 1-595, looked up)
chain: T1 sequence (Q99572 1-595)
modifications: palmitoylation of residues in the C-cys anchor; limited glycosylation, acylation and palmitoylation modelled
notes: P2X7 receptor (P2X purinoceptor 7), human, full-length wild-type, no mutations or truncations; C-terminal HRV 3-C site, GFP and histidine tag removed during purification; Homotrimeric ion channel; also called hP2X7R; hP2X7; not shown: GFP, C-terminal, cleaved
B2: full-length wild-type mouse P2X7 receptor (receptor, UniProt Q9Z1M0 1-595, looked up)
chain: MPACCSWNDVLQYETNKVTRIQSTNYGTVKWVLHMIVFSYISFALVSDKLYQRKEPVISSVHTKVKGIAEVTENVTEGGVTKLGHSIFDTADYTFPLQGNSFFVMTNYVKSEGQVQTLCPEYPRRGAQCSSDRRCKKGWMDPQSKGIQTGRCVPYDKTRKTCEVSAWCPTEEEKEAPRPALLRSAENFTVLIKNNIHFPGHNYTTRNILPTMNGSCTFHKTWDPQCSIFRLGDIFQEAGENFTEVAVQGGIMGIEIYWDCNLDSWSHHCRPRYSFRRLDDKNTDESFVPGYNFRYAKYYKENNVEKRTLIKAFGIRFDILVFGTGGKFDIIQLVVYIGSTLSYFGLATVCIDLLINTYSSAFCRSGVYPYCKCCEPCTVNEYYYRKKCESIMEPKPTLKYVSFVDEPHIRMVDQQLLGKSLQVVKGQEVPRPQMDFSDLSRLSLSLHDSPLTPGQSEEIQLLHEEVAPKSGDSPSWCQCGNCLPSRLPEQRRALEELCCRRKPGRCITTSKLFHKLVLSRDTLQLLLLYQDPLLVLGEEATNSRLRHRAYRCYATWRFGSQDMADFAILPSCCRWRIRKEFPKTEGQYSGFKYPY
modifications: palmitoylation of residues in the C-cys anchor
notes: P2X7 receptor (P2X purinoceptor 7), mouse, full-length wild-type, no mutations or truncations; C-terminal HRV 3-C site, GFP and histidine tag removed during purification; Homotrimeric ion channel; solved in the apo closed state; also called mP2X7R; mP2X7; not shown: GFP, C-terminal, cleaved

How the values were obtained:
[1] = biological target: T1, hP2X7R; assay: Ethidium bromide accumulation in hP2X7R-expressing HEK293 cells; type: cell-based; design: expressed in transfected cells; conditions: for mean % of maximum accumulation / MAX100 (% of maximum accumulation, replicates 1-3): BzATP 6 μM; for MAX100 (% of maximum accumulation, replicates 1-3): single replicates
Protocol: Human P2X7R-expressing HEK293 cells were cultured in a humidified atmosphere of 5% CO2 at 37 °C in Dulbecco’s Modification of Eagle’s Medium (DMEM; Corning) supplemented with 10% (v/v) fetal bovine serum (Corning) and 1% (v/v) antibiotic–antimycotic (Gibco)[75]. To perform the assay, the DMEM was removed, and the HEK293 cells were washed with 3 mL of 1X DPBS (Dulbecco’s Phosphate-Buffered Saline; Corning). After the removal of DPBS solution, the cells were detached from the dish with 1 mL of trypsin/EDTA (Gibco), and the cells were collected by centrifugation. The cells (density of 2.25 × 10^7) were re-suspended in 4-(2-hydroxyethyl)-1-piperazineethanesulfonic acid (HEPES)-buffered salt solution consisting of 140 mM potassium chloride, 1 mM ethylene diamine tetraacetic acid (EDTA), 5 mM glucose, 20 mM HEPES, and 0.1 mM ethidium bromide (pH 7.4). The vehicles or appropriate range of concentrations of compounds (10 μL, pre-diluted in 10% (v/v) DMSO in DW from 10 mM stock) were added to each well of 96-well black plate (Corning), and 80 μL of the cell suspension was subsequently added to each well. BzATP (10 μL, pre-diluted in DW from 10 mM stock) was then added, and the final assay volume was maintained at 100 μL. After the incubation in 5% CO2 at 37 °C for 2 h, the ethidium dye uptake was detected by measuring the fluorescence (excitation wavelength of 530 nm and emission wavelength of 590 nm) of each well using a CHAMELEON™ Multi-Technology Plate Reader. The antagonistic activities of compounds are expressed as the percentages relative to the maximum accumulation of ethidium bromide observed in the control group with the stimulation of the hP2X7R by an agonist, BzATP. The IC50 values of compounds as antagonists were calculated using nonlinear regression analysis using OriginPro 9.1 software.

[2] = biological target: the molecule itself; assay: cryo-EM structure; purified detergent-solubilised receptor (20 mM HEPES pH 7.0, 100 mM NaCl, 0.5 mM C12M); apo, or incubated with 900 uM ATP or antagonist at 3-4x the molar concentration of the monomer
[3] = antagonist concentration 3.2 (unit not given)
[4] = antagonist concentration 16 (unit not given)
[5] = antagonist concentration 80 (unit not given)
[6] = antagonist concentration 400 (unit not given)
[7] = antagonist concentration 2000 (unit not given)
[8] = antagonist concentration 10000 (unit not given)

Molecule | mean % of maximum accumulation [1, 3] | mean % of maximum accumulation [1, 4] | mean % of maximum accumulation [1, 5] | mean % of maximum accumulation [1, 6] | mean % of maximum accumulation [1, 7] | mean % of maximum accumulation [1, 8] | IC50 ([1]; hP2X7R, ethidium bromide accumulation, mean ± SD, triplicate) | ΔΔGexp ([1]; relative to UB-ALT-P30, from experimental pIC50 values, T = 298 K) | MAX100 (% of maximum accumulation, replicates 1-3) [1, 3] | MAX100 (% of maximum accumulation, replicates 1-3) [1, 4] | MAX100 (% of maximum accumulation, replicates 1-3) [1, 5] | MAX100 (% of maximum accumulation, replicates 1-3) [1, 6] | MAX100 (% of maximum accumulation, replicates 1-3) [1, 7] | MAX100 (% of maximum accumulation, replicates 1-3) [1, 8] | stoichiometry N [2]
O=C(NNc1ccccc1Cl)C12C3C4C5C3C1C5C42 (stereo not shown) [UB-ALT-P38] | 92.6488% | 90.4406% | 85.6943% | 54.1625% | 8.486% | 7.125% | 430 ± 64 nM | 1.36 ± 1.50 kcal/mol | 94.8207 and 85.2995 and 97.8261 | 88.8446 and 87.4773 and 95 | 92.8287 and 88.3848 and 75.8696 | 70.5179 and 47.1869 and 44.7826 | 13.1474 and 15.7895 and -3.478 | 12.9482 and 12.3412 and -3.913 | –
B1 | – | – | – | – | – | – | – | – | – | – | – | – | – | – | 3
B2 | – | – | – | – | – | – | – | – | – | – | – | – | – | – | 3
